pIC50: −log10 of the molar value.
Assays:
HeLa cells = assay: MTT cytotoxicity assay, HeLa cells, 72 h; assay type: cell-based; conditions: Homo sapiens, 72 h treatment
[1] = Microsomal stability, human liver microsomes; assay type: in vitro ADME; conditions: for % Drug Remaining NADPH Neg, Human Liver Microsomes / % Drug Remaining NADPH Pos, Human Liver Microsomes: 10 μM
Procedure: An incubation mixture with, and without NADPH-generating system, as well as a neat solution prepared without microsomes and NADPH-generating system was used. […] All reactions were initiated with the addition of Up284. Incubations were performed in glass tubes maintained at 37°C in a shaker bath. At 0, 30, and 60 minutes, 10 μL samples were withdrawn from the reaction mixture, and 0.5 mL of acetonitrile containing internal standard was added to each. Samples were vortex-mixed and subjected to centrifugation for 5 min at 1430 x g. A 10 μL aliquot of the supernatant was injected onto the LC-MS/MS instrument for qualitative analysis using a temperature-controlled autosampling device operating at 5°C.

CHOP10 mRNA = assay: Q-PCR of CHOP10 mRNA; conditions: 1 μM, 4 h
[2] = tested on: PEA2, PACS and SKOV3 cells; assay: Checkerboard combination cytotoxicity (MTT, Synergy finder); assay type: cell-based; conditions: 72 h
Procedure: Results are reported as mean ± standard deviation (s.d.). Statistical significance of differences was assessed by two-tailed Student’s t using Prism (V.5 Graphpad, San Diego, CA) with the level of significance set at p≤0.05. Survival was summarized using Kaplan–Meier methods and compared using log-rank tests. Combination indices (CI) were calculated using Synergy finder.
Cell viability was measured using MTT assay and data was processed using the Synergy Finder web application. B) Same as in A, PACS cell line derived from spontaneous mouse ovarian tumor [32], was used. (TIF) Click here for additional data file.
Cell viability was measured using MTT assay and data was processed using the Synergy Finder web application. (TIF) Click here for additional data file.

N#Cc1ccc(/C=C2/C(=O)/C(=C/c3ccc(C#N)cc3)C23CCNCC3)cc1 [Up284]
pIC50 (HeLa cells): 7.40 | additional degradation in the presence of NADPH, human liver microsomes [1]: ~ 10% | degradation in human liver microsomes without NADPH [1]: ~ 50% | % Drug Remaining NADPH Neg, Human Liver Microsomes ([1]; 0 min): 100% | % Drug Remaining NADPH Pos, Human Liver Microsomes ([1]; 0 min): 100% | % Drug Remaining NADPH Neg, Human Liver Microsomes ([1]; 30 min): 57% | % Drug Remaining NADPH Pos, Human Liver Microsomes ([1]; 30 min): 43% | % Drug Remaining NADPH Neg, Human Liver Microsomes ([1]; 60 min): 52% | % Drug Remaining NADPH Pos, Human Liver Microsomes ([1]; 60 min): 43% | CHOP10 mRNA levels (CHOP10 mRNA): rapid upregulation | cytotoxicity of Up284 and doxorubicin combination ([2]; SKOV3 cells): synergy | cytotoxicity of checkerboard combinations of Up284 and cisplatin ([2]; several cell lines including PEA2 and PACS): clear evidence of synergy
